{"source": "patent US7838496B2", "about": "“Template-fixed peptidomimetics as medicaments against HIV and cancer” (Polyphor AG/Ltd., priority 2003, dated 2010)", "type_in_all_cases": "cell-based", "key": {"in vitro": {"assay": "in vitro", "procedure": "The cytotoxicity of the peptides to HELA cells (Acc57) and COS-7 cells (CRL-1651) was determined using the MTl reduction assay [see ref. 6 and 7, below]. Briefly the method was as follows: HELA cells and COS-7 cells were seeded at 7.0·10^3 and, respectively, 4.5·10^3 cells per well and grown in 96-well microtiter plates for 24 hours at 37° C. at 5% CO2. At this point, time zero (Tz) was determined by MTT reduction (see below). The supernatant of the remaining wells was discarded and fresh medium and the peptides in serial dilutions of 12.5, 25 and 50 μM were pipeted into the wells. Each peptide concentration was assayed in triplicate. Incubation of the cells was continued for 48 hours at 37° C. at 5% CO2. Wells were then washed once with PBS and subsequently 100 μl MTT reagent (0.5 mg/mL in medium RPMI1640 and, respectively, DMEM) was added to the wells. This was incubated at 37° C. for 2 hours and subsequently the medium was aspirated and 100 μl isopropanol was added to each well. The absorbance at 595 nm of the solubilized product was measured (OD595peptide). For each concentration averages were calculated from triplicates. The percentage of growth was calculated as follows: (OD595peptide-OD595Tz-OD595Empty well)/(OD595Tz-OD595Empty well)×100% and was plotted for each peptide concentration.\nThe LC 50 values (Lethal Concentration, defined as the concentration that kills 50% of the cells) were determined for each peptide by using the trend line function of EXCEL (Microsoft Office 2000) for the concentrations (50, 25, 12.5 and 0 μM), the corresponding growth percentages and the value −50, (=TREND(C50:C0,%50:%0,−50))\n(§1) All fine chemicals came from Merck (D)armstadt, Germany)."}, "[1]": {"test_system": "human red blood cells (hRBC)", "details": "red cells of human, 1 h", "procedure": "The peptides were tested for their hemolytic activity against human red blood cells (hRBC). Fresh hRBC were washed three times with phosphate buffered saline (PBS) by centrifugation for 10 min at 2000×g. Peptides at a concentration of 100 μM were incubated with 20% v/v hRBC for 1 hour at 37-C. The final erythrocyte concentration was approximately 0.9×10^9 cells per mL. A value of 0% resp. 100% cell lysis was determined by incubation of the hRBC in the presence of PBS alone and respectively 0.1% Triton X-100 in H2O. The samples were centrifuged and the supernatant was 20-fold diluted in PBS buffer and the optical density (OD) of the sample at […] was measured. The 100% lyses value (OD540H2O) gave an OD540 of approximately 1.3-1.8. Percent hemolysis was calculated as follows: (OD540peptide/OD540H2O)×100%."}, "[2]": {"test_system": "'CCR5' cells / Hut/4-3 cells co-cultivation", "assay": "FIGS-Assay (co-cultivated cell cultures, beta-galactosidase/ONPG read-out)", "details": "at 200 nM; 48 hours of co-cultivation", "procedure": "The assay was performed according to ref. 5, below. Stock dilutions of the peptides (10 mM) were prepared by dissolving in 10 mM Tris-HCl at room temperature. Stock solutions were kept at +4° C., light protected. Working dilutions were prepared extemporaneously by serial dilution in Phosphate Buffered Saline (PBS) and added in a final volume of 10 μL directly to the cell cultures. After 48 hours of co-cultivation the cultures were rinsed with PBS and then exposed to glutaraldehyde/formaldehyde (0.2%/2%) in PBS for five minutes. For photometric quantification the fixed cultures were subsequently incubated with ortho-nitro-phenyl-galactopyranoside (ONPG) as a O-galactosidase substrate, which was enzymatically converted into the chromophore ortho-nitrophenol (ONP). The read out is directly obtained by measuring optical density of wells at 405 nm in an IEMS 96 well-plate reader.\nas §1"}, "CXCR4": {"biological_target": "T1, CXCR4 (Homo sapiens, UniProt P61073)", "T1 construct": "expressed in transfected cells", "T1 sequence (P61073 whole entry)": "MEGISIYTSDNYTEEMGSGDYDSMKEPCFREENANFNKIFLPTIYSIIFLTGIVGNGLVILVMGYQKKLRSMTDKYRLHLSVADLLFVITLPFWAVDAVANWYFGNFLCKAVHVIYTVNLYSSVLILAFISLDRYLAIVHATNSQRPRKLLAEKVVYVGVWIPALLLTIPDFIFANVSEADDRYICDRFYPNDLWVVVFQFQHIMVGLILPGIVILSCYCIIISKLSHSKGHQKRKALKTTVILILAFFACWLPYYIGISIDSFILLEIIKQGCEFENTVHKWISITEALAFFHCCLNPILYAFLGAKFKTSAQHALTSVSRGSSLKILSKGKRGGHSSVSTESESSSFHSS", "assay": "Ca2+ assay: CXCR4 antagonizing activity of the peptides", "details": "CXCR4 transfected pre-B cells, Fura-2 fluorescence, 37° C.", "procedure": "2.2. Ca^2+− assay: CXCR4Antagonizing Activity of the Peptides\n3-4 Mio CXCR4 transfected pre-B cells [see references 1, 2 and 3, below] per measurement were resuspended in 200 μl MSB (20 mM 4-(2-Hyddroxyethyl)-piperazin-1-ethansulfonic acid (HEPES), 136 mM NaCl, 4.8 mM KCl and 1 mM CaCl2) containing 5 mM D-Glucose and were loaded with 0.75 μl of 1 mM Fura-2-acetoxymethylester for 17 minutes at 37° C. The cells were washed free from Fura-2-AM with a platelet centrifuge and resuspended in 800 R1 MSB containing 5 mM D-Glucose. The peptides to be administered were diluted to a 100 fold end concentration in MSB/0.2% PPL, and 8 pl were injected. [Ca^2+ ]i-dependent fluorescence change in response to single or sequential stimulation with the peptide was recorded with a fluorimeter at an excitation wavelength of 340 nm and an end emission wavelength of 510 nm [see ref. 4, below]. Measurements were done under continuous stirring at 37° C. The signal intension was calibrated with 3 mM4 CaCl2/1 nM lonomycin (maximal fura-2-acetoxymethylester saturation) and […] MnCl2 (minimal Fura-2-acetoxymethylester saturation) and [Ca^2+]i-changes are presented in % fura-2-acetoxymethylester saturation.\nMSB: 20 nmM HEPES, 136 mM NaCl, 4.8 mM KCl, 1 mM CaCl2.2H2O, pH 7.4; Osmolarity: 310 mOsm adjusted with NaOH or HCl, adjusted with dH2O or PBS.\nMSB plus: 5 mM D-glucose in MSB (50 mg/50 mL).\nFura 2-acetoxymethylester: 1 mM stock solution in dimethylsulfoxide."}}, "note": "Where a SMILES comes first, the peptide text is derived from it. Bridges are numbered along the chain shown (N, C = ends). [ ]: non-standard residue; d: D form. 2Nal = N[C@@H](Cc1ccc2ccccc2c1)C(=O)O; Cit = NC(=O)NCCC[C@H](N)C(=O)O", "data": [{"smiles": "N=C(N)NCCC[C@H](NC(=O)[C@@H]1CSSC[C@H](NC(=O)[C@H](Cc2ccc3ccccc3c2)NC(=O)[C@H](CCCNC(=N)N)NC(=O)[C@@H](N)CCCNC(=N)N)C(=O)N[C@@H](Cc2ccc(O)cc2)C(=O)N[C@@H](CCCCN)C(=O)N[C@H](CCCCN)C(=O)N2CCC[C@H]2C(=O)N[C@@H](Cc2ccc(O)cc2)C(=O)N[C@@H](CCCNC(N)=O)C(=O)N1)C(N)=O", "note": "[Example 1] (H-RR[2Nal]CYK[dK]PY[Cit]CR-NH2; disulfide 4-11; N-terminus assumed)", "values": [{"measurement": "CC50", "setting": "in vitro", "result": 75, "unit": "µM"}, {"measurement": "Hemolysis at 100 μM", "setting": "[1]", "result": 0.4, "unit": "%"}]}, {"smiles": "N=C(N)NCCC[C@H](NC(=O)[C@@H]1CSSC[C@H](NC(=O)[C@H](Cc2ccc3ccccc3c2)NC(=O)[C@H](CCCNC(=N)N)NC(=O)[C@@H](N)CCCNC(=N)N)C(=O)N[C@@H](Cc2ccc(O)cc2)C(=O)N[C@@H](CCCNC(=N)N)C(=O)N[C@H](CCCCN)C(=O)N2CCC[C@H]2C(=O)N[C@@H](Cc2ccc(O)cc2)C(=O)N[C@@H](CCCNC(N)=O)C(=O)N1)C(N)=O", "note": "[Example 2] (H-RR[2Nal]CYR[dK]PY[Cit]CR-NH2; disulfide 4-11)", "values": [{"measurement": "CC50 at 48 h", "setting": "in vitro", "result": 58, "unit": "µM"}, {"measurement": "FIGS % inhibition at 200 nM", "setting": "[2]", "result": 3.8, "unit": "%"}, {"measurement": "Hemolysis at 100 μM", "setting": "[1]", "result": 0.9, "unit": "%"}]}, {"smiles": "N=C(N)NCCC[C@H](NC(=O)[C@@H]1CSSC[C@H](NC(=O)[C@H](Cc2ccc3ccccc3c2)NC(=O)[C@H](CCCNC(=N)N)NC(=O)[C@@H](N)CCCNC(=N)N)C(=O)N[C@@H](Cc2ccc(O)cc2)C(=O)N[C@@H](CCCCN)C(=O)N[C@H](CCCCN)C(=O)N2CCC[C@H]2C(=O)N[C@@H](CCCNC(=N)N)C(=O)N[C@@H](CCCNC(N)=O)C(=O)N1)C(N)=O", "note": "[Example 3] (H-RR[2Nal]CYK[dK]PR[Cit]CR-NH2; disulfide 4-11; N-terminus assumed)", "values": [{"measurement": "CC50 at 48 h", "setting": "in vitro", "result": 52, "unit": "µM"}, {"measurement": "IC50", "setting": "CXCR4", "result": 490, "unit": "nM"}, {"measurement": "FIGS % inhibition at 200 nM", "setting": "[2]", "result": 5.7, "unit": "%"}, {"measurement": "Hemolysis at 100 μM", "setting": "[1]", "result": 0.7, "unit": "%"}]}, {"smiles": "N=C(N)NCCC[C@H](NC(=O)[C@@H]1CSSC[C@H](NC(=O)[C@H](Cc2ccc3ccccc3c2)NC(=O)[C@H](CCCNC(=N)N)NC(=O)[C@@H](N)CCCNC(=N)N)C(=O)N[C@@H](Cc2ccc(O)cc2)C(=O)N[C@@H](CCCCN)C(=O)N2CCC[C@@H]2C(=O)N2CCC[C@H]2C(=O)N[C@@H](Cc2ccc(O)cc2)C(=O)N[C@@H](CCCNC(=N)N)C(=O)N1)C(N)=O", "note": "[Example 4] (H-RR[2Nal]CYK[dP]PYRCR-NH2; disulfide 4-11; N-terminus assumed)", "values": [{"measurement": "CC50 at 48 h", "setting": "in vitro", "result": "> 300", "unit": "µM"}, {"measurement": "IC50", "setting": "CXCR4", "result": 848, "unit": "nM"}, {"measurement": "FIGS % inhibition at 200 nM", "setting": "[2]", "result": 26.0, "unit": "%"}, {"measurement": "Hemolysis at 100 μM", "setting": "[1]", "result": 0.3, "unit": "%"}]}, {"smiles": "N=C(N)NCCC[C@H](NC(=O)[C@@H]1CSSC[C@H](NC(=O)[C@H](Cc2ccc3ccccc3c2)NC(=O)[C@H](CCCNC(=N)N)NC(=O)[C@@H](N)CCCNC(=N)N)C(=O)N[C@@H](Cc2ccc(O)cc2)C(=O)N[C@@H](CCCNC(=N)N)C(=O)N2CCC[C@@H]2C(=O)N2CCC[C@H]2C(=O)N[C@@H](Cc2ccc(O)cc2)C(=O)N[C@@H](CCCNC(=N)N)C(=O)N1)C(N)=O", "note": "[Example 5] (H-RR[2Nal]CYR[dP]PYRCR-NH2; disulfide 4-11; N-terminus assumed)", "values": [{"measurement": "CC50 at 48 h", "setting": "in vitro", "result": 67, "unit": "µM"}, {"measurement": "IC50", "setting": "CXCR4", "result": 132, "unit": "nM"}, {"measurement": "FIGS % inhibition at 200 nM", "setting": "[2]", "result": 16.4, "unit": "%"}, {"measurement": "Hemolysis at 100 μM", "setting": "[1]", "result": 0.7, "unit": "%"}]}, {"smiles": "N=C(N)NCCC[C@H](NC(=O)[C@@H]1CSSC[C@H](NC(=O)[C@H](Cc2ccc3ccccc3c2)NC(=O)[C@H](CCCNC(=N)N)NC(=O)[C@@H](N)CCCNC(=N)N)C(=O)N[C@@H](Cc2ccc(O)cc2)C(=O)N[C@@H](CCCNC(N)=O)C(=O)N[C@@H](CCCCN)C(=O)N[C@H]2C[C@H]3C(=O)N[C@@H](CC(=O)N[C@@H](Cc4ccc(O)cc4)C(=O)N[C@@H](CCCNC(=N)N)C(=O)N[C@@H](CCCNC(N)=O)C(=O)N1)C(=O)N3C2)C(N)=O", "note": "[Example 21]", "values": [{"measurement": "CC50 at 48 h", "setting": "in vitro", "result": 82, "unit": "µM"}, {"measurement": "FIGS % inhibition at 200 nM", "setting": "[2]", "result": 29.6, "unit": "%"}, {"measurement": "Hemolysis at 100 μM", "setting": "[1]", "result": 0.8, "unit": "%"}]}]}
